Measurements as given in PMC4255642 (Biochemistry, 2014).

Legend:
[1] = system: wild-type and mutant membrane-bound F1Fo ATP synthase; assay type: biochemical; conditions: wild type and six mutants; 150 μM NBD-Cl 1 h, then 4 mM DTT 1 h
[2] = system: F1Fo-bound membranes; experiment: Control: protecting ligand without added NBD-Cl, ATPase activity; assay type: biochemical, Escherichia coli; conditions: MgADP up to 10 mM, Pi up to 50 mM
[3] = molecular target: βR182A mutant membrane-bound F1Fo ATP synthase (Escherichia coli, UniProt P0ABB0+P0ABB4, R183A/Y332W); assay type: biochemical; conditions: sodium azide 30 min preincubation
[4] = molecular target: αT349R mutant membrane-bound F1Fo ATP synthase (Escherichia coli, UniProt P0ABB0+P0ABB4, T349R/Y332W); assay type: biochemical; conditions: sodium azide 30 min preincubation
[5] = molecular target: αT349D mutant membrane-bound F1Fo ATP synthase (Escherichia coli, UniProt P0ABB0+P0ABB4, T349D/Y332W); assay type: biochemical; conditions: sodium azide 30 min preincubation
[6] = molecular target: αT349Q mutant membrane-bound F1Fo ATP synthase (Escherichia coli, UniProt P0ABB0+P0ABB4, T349Q/Y332W); assay type: biochemical; conditions: sodium azide 30 min preincubation
[7] = molecular target: αT349R/βR182A double mutant membrane-bound F1Fo ATP synthase (Escherichia coli, UniProt P0ABB0+P0ABB4, R183A/T349R/Y332W); assay type: biochemical; conditions: sodium azide 30 min preincubation
[8] = molecular target: αT349A mutant membrane-bound F1Fo ATP synthase (Escherichia coli, UniProt P0ABB0+P0ABB4, T349A/Y332W); assay type: biochemical; conditions: sodium azide 30 min preincubation

O[C@@H](CS)[C@@H](O)CS (racemic) [DTT, dithiothreitol]
reversal of NBD-Cl inactivation of ATPase activity by DTT [1]: completely restored full activity in all cases

Nc1ncnc2c1ncn2[C@@H]1O[C@H](COP(=O)([O-])OP(=O)([O-])O)[C@@H](O)[C@H]1O.[Mg+2] [MgADP]
inhibitory effect of ligand alone on ATPase activity [2]: Neither MgADP (up to 10 mM) nor Pi (up to 50 mM) had any inhibitory effect alone

O=P(O)(O)O [Pi, inorganic phosphate]
inhibitory effect of ligand alone on ATPase activity [2]: Neither MgADP (up to 10 mM) nor Pi (up to 50 mM) had any inhibitory effect alone

[N-]=[N+]=[N-].[Na+] [azide, sodium azide]
residual ATPase activity with azide [3]: ~72% | residual ATPase activity with azide [4]: ~40% | residual ATPase activity with azide [5]: ~90% | residual ATPase activity with azide [6]: ~90% | residual ATPase activity with azide [7]: ~21% | residual ATPase activity with azide [8]: ~53%
